This note sets out measurements from US9725414B2, “Fungicidal N-bicycloalkyl and N-tricycloalkyl pyrazole-4-(thio)carboxamide derivatives” (priority 2011, dated 2017).

For one data set, the system named is Leptosphaeria nodorum. Description: Example K: in vivo preventive test on Leptosphaeria nodorum (wheat). The following applies: 500 ppm of active ingredient, evaluated 8 days after inoculation. The procedure: (§1) In Vivo Preventive Test on Leptosphaeria nodorum (Wheat) Solvent: 49 parts by weight of N,N-dimethylacetamide Emulsifier: 1 part by weight of alkylaryl polyglycol ether To produce a suitable preparation of active compound, 1 part by weight of active compound or active compound combination is mixed with the stated amounts of solvent and emulsifier, and the concentrate is diluted with water to the desired concentration. To test for preventive activity, young plants are sprayed with the preparation of active compound or active compound combination at the stated rate of application. After the spray coating has been dried, the plants are sprayed with a spore suspension of Leptosphaeria nodorum. The plants remain for 48 hours in an incubation cabinet at approximately 20° C. and a relative atmospheric humidity of approximately 100%.

In the next data set the test system is Septoria tritici. Description: Example H: in vivo preventive test on Septoria tritici (wheat), N,N-dimethylacetamide/emulsifier preparation. The following applies: 500 ppm of active ingredient, evaluated 21 days after inoculation. The protocol:
as §1, with “Test on Septoria tritici (Wheat) Solvent:” for “Test on Leptosphaeria nodorum (Wheat) Solvent:”, “suspension of Septoria tritici. The plants” for “suspension of Leptosphaeria nodorum. The plants”, “of approximately 100% and afterwards for 60 hours at approximately 15° C. in a translucent incubation cabinet at a relative atmospheric humidity of approximately 100%.” for “of approximately 100%.”

Data set [1] relates to Blumeria graminis f.sp. hordei. Description: Example J: in vivo preventive test on Blumeria graminis (barley). The conditions noted are these: 500 ppm of active ingredient, evaluated 7 days after inoculation. The protocol:
In Vivo Preventive Test on Blumeria graminis (Barley) Solvent: 49 parts by weight of N,N-dimethylacetamide Emulsifier: 1 part by weight of alkylaryl polyglycol ether To produce a suitable preparation of active compound, 1 part by weight of active compound or active compound combination is mixed with the stated amounts of solvent and emulsifier, and the concentrate is diluted with water to the desired concentration. To test for preventive activity, young plants are sprayed with the preparation of active compound or active compound combination at the stated rate of application. After the spray coating has been dried, the plants are dusted with spores of Blumeria graminis f.sp. hordei.

A further data set relates to Puccinia triticina. Description: Example L: in vivo preventive test on Puccinia triticina (wheat). The conditions noted are these: 500 ppm of active ingredient, evaluated 8 days after inoculation. The procedure: In Vivo Preventive Test on Puccinia triticina (Wheat)
Solvent: 49 parts by weight of N,N-dimethylacetamide
Emulsifier: 1 part by weight of alkylaryl polyglycol ether
To produce a suitable preparation of active compound, 1 part by weight of active compound or active compound combination is mixed with the stated amounts of solvent and emulsifier, and the concentrate is diluted with water to the desired concentration.
To test for preventive activity, young plants are sprayed with the preparation of active compound or active compound combination at the stated rate of application.
After the spray coating has been dried, the plants are sprayed with a spore suspension of Puccinia triticina.
The plants remain for 48 hours in an incubation cabinet at approximately 20° C. and a relative atmospheric humidity of approximately 100%.
The plants are placed in the greenhouse at a temperature of approximately 20° C. and a relative atmospheric humidity of approximately 80%.
The test is evaluated 8 days after the inoculation. 0% means an efficacy which corresponds to that of the untreated control, while an efficacy of 100% means that no disease is observed.

Data set [2] is described as follows: log P by HPLC on reversed-phase column (C 18), EEC Directive 79831 Annex V.A8. Format: physicochemical. The conditions noted are these: HPLC reversed-phase C 18, 40° C., 0.1% aqueous formic acid and acetonitrile gradient; several values = mixture of two or more isomers. In a few lines: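 Reversed-phase C18 HPLC at 40° C, 0.1% aqueous formic acid/acetonitrile linear gradient 10% to 90% acetonitrile, per EEC Directive 79831 Annex V.A8. log P obtained from retention time by linear interpolation between unbranched alkan-2-ones (C3-C16) of known log P.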

Data set [3] concerns Fusarium nivale (var. majus). Description: Example N: in vivo preventive test on Fusarium nivale (wheat). The conditions noted are these: 500 ppm of active ingredient, evaluated 5 days after inoculation. The protocol:
In Vivo Preventive Test on Fusarium nivale (Wheat) Solvent: 49 parts by weight of N,N-dimethylacetamide Emulsifier: 1 part by weight of alkylaryl polyglycol ether To produce a suitable preparation of active compound, 1 part by weight of active compound or active compound combination is mixed with the stated amounts of solvent and emulsifier, and the concentrate is diluted with water to the desired concentration. To test for preventive activity, young plants are sprayed with the preparation of active compound or active compound combination at the stated rate of application. After the spray coating has been dried, the plants are slightly injured by using a sandblast and afterwards they are sprayed with a conidia suspension of Fusarium nivale (var. majus). The plants are placed in the greenhouse under a translucent incubation cabinet at a temperature of approximately 10° C. and a relative atmospheric humidity of approximately 100%.

Another data set deals with Pyrenophora teres. Description: Example F: in vivo preventive test on Pyrenophora teres (barley), acetone/tween/DMSO preparation. The following applies: 500 ppm of active ingredient, barley, grading 14 days after contamination. In a few lines:
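Barley ("Plaisant") grown at 22° C was sprayed at the 1-leaf stage (10 cm) with active ingredient in acetone/tween/DMSO/water, with solvent-only controls. After 24 h, leaves were inoculated with Pyrenophora teres spores (12 000 spores per mL) from 12-day cultures. % efficacy versus controls graded 14 days post-contamination.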

Another data set concerns Puccinia recondita. Description: Example M: in vivo preventive test on Puccinia recondita (brown rust on wheat). The following applies: 500 ppm of active ingredient, grading 12 days after contamination. In outline: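 Wheat (Scipion) sprayed with compound at 1-leaf stage, grown at 22° C. Inoculated 24 h later with a spore suspension at 100 000 spores per mL. Efficacy (%) graded 12 days after inoculation against solvent-treated controls.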

The logP is a log measure of how a compound divides between an organic and an aqueous phase. As to `Cn1nc(C(F)F)c(C(=O)N(CC2CC3CCC2C3)C2CC2)c1F` (stereo not drawn) [Example 71], the Efficacy (with Leptosphaeria nodorum; with Septoria tritici; in data set [1]; in the data set with Puccinia triticina; in data set [3]) was 100% in each case. Further, the log partition coefficient (logP) in data set [2] is 3.58.

As to `Cn1nc(C(F)F)c(C(=O)N(CC2(Cc3ccccc3)CC3CCC2C3)C2CC2)c1F` (stereo not drawn) [Example 69], the Efficacy with Leptosphaeria nodorum was 100%; in the data set on Pyrenophora teres, 97%; in the data set on Septoria tritici, 100%; in data set [1], 100%; with Puccinia recondita, 81%; in data set [3], 93%. The logP in data set [2] turned out to be 4.91.

Take `Cn1nc(C(F)F)c(C(=O)N(CC2CCC3CCCC3C2)C2CC2)c1F` (stereo not drawn) [Example 62]: the Efficacy in the data set with Leptosphaeria nodorum is on record as 100%; with Pyrenophora teres it was 97%; in the data set with Septoria tritici it was 100%; in data set [1], 100%; in the data set on Puccinia recondita it was 98%; in the data set on Puccinia triticina, 100%. Also, the Efficacy in data set [3] was 100%. For the same compound, the logP in data set [2] worked out at 4.41.

Consider `Cn1nc(C(F)F)c(C(=O)N(C2CC2)C2CC3CCCCC3C2)c1F` (stereo not drawn) [Example 12], for which the Efficacy is on record as 93% in the data set with Leptosphaeria nodorum; 100% in the data set on Pyrenophora teres; 100% in the data set with Septoria tritici; 100% in data set [1]; 94% in the data set with Puccinia recondita; 100% in the data set with Puccinia triticina. Further, in data set [3], the Efficacy stood at 100%. In addition, the logP in data set [2] is listed as 4.11.

In the case of `Cn1cc(C(=O)N(C2CC2)C2CCCC3CCCC32)c(C(F)F)n1` (stereo not drawn) [Example 20], the Efficacy came out at 86% in the data set with Leptosphaeria nodorum; 97% in the data set with Pyrenophora teres; 100% with Septoria tritici; 95% in data set [1]; 81% with Puccinia recondita; 78% in the data set with Puccinia triticina. In addition, the Efficacy in data set [3] stood at 100%. For the same compound, the logP in data set [2] is on record as 3.48.

Regarding `Cn1nc(C(F)F)c(C(=O)N(C2CC2)C2CCCC3CCCC32)c1F` (stereo not drawn) [Example 19], the Efficacy (with Leptosphaeria nodorum; in the data set on Pyrenophora teres; with Septoria tritici; in data set [1]; in the data set with Puccinia recondita; in the data set on Puccinia triticina) was 100% each time. The Efficacy in data set [3] is reported as 100%. In addition, in data set [2], the logP turned out to be 3.99.

Regarding `CC(C1CC2CCC1C2)N(C(=O)c1c(C(F)F)nn(C)c1F)C1CC1` (stereo not drawn) [Example 93], the Efficacy with Leptosphaeria nodorum came to 100%; in the data set on Septoria tritici, 83%; in data set [1], 100%; with Puccinia triticina, 100%; in data set [3], 100%. For the same compound, in data set [2], the logP is recorded as 4.01.
